Residues, ends and D or L forms follow the SMILES beside them. No end group written: not given here. *: point of attachment. X1 = O=C(CCOCCOCCOCOCCOCCOCCOCCC(=O)*)ON1C(=O)CC(S(=O)(=O)O)C1=O; X3 = O=C(CCOCCOCCOCCOCCOCCOCCC(=O)*)ON1C(=O)CC(S(=O)(=O)O)C1=O; X2 = O=C(CCOCCOCCOCCC(=O)*)ON1C(=O)CC(S(=O)(=O)O)C1=O
B1: anti-IL-6 antibody 5IL6 directly labeled with HW-1042 (SulfoSE-PEG6-SmTrip9 Pep693) (antibody, not shown: large carriers; small tags and cut ends)
peptide: GRMLFRVTINSWR
modifications: not fully specified
B2: anti-IL-6 antibody 5IL6 directly labeled with HW-0984 (SulfoSE-PEG3-SmTrip9 Pep693) (antibody, not shown: large carriers; small tags and cut ends)
peptide: GRMLFRVTINSWR
modifications: not fully specified
B3: anti-IL-6 antibody 5IL6 directly labeled with HW-1010 (SulfoSE-PEG3-SmTrip9 Pep895) (antibody, not shown: large carriers; small tags and cut ends)
peptide: GRLLFVVVIERYR
modifications: not fully specified
B4: anti-IL-6 antibody 505E directly labeled with HW-0977 (SulfoSE-PEG3-SmTrip10 Pep691) (antibody, not shown: large carriers; small tags and cut ends)
peptide: VSGWRLFRRIS
modifications: also: peptide labeled on anti-IL-6 antibody 505E via SulfoSE-PEG3 linker
B5: anti-IL-6 antibody 5IL6 directly labeled with HW-1052 (SulfoSE-PEG6-SmTrip9 Pep929) (antibody, not shown: large carriers; small tags and cut ends)
peptide: RRMLFRVTIQRWR
modifications: not fully specified
B6: NanoLuc: bioluminescent polypeptide of SEQ ID NO: 5, NanoLuc luciferase (Promega) (protein)
chain: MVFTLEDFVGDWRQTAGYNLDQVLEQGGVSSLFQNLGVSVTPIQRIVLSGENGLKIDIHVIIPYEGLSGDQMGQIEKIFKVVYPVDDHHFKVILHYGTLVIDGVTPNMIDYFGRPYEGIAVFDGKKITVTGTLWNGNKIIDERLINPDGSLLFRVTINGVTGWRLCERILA

Key:
rhIL-6 = experiment: Solution-based IL-6 immunoassay with antibodies directly labeled with reactive peptides; design: species or system human; conditions: for signal in the absence of rhIL-6 / signal to background: paired with HW-1053, 1 μM LgTrip 3546; for IL-6 assay result with LgTrip 5146: 1 μM LgTrip 5146 instead of LgTrip 3546; for signal to background: IL-6 titration; for light output in the presence of high rhIL-6 concentrations: SmTrip9 label on 5IL6 antibody paired with HW-1053-labeled 505E antibody, 1 μM LgTrip 3546
Description: The basic principle of homogeneous NanoLuc tripartite immunoassays with directly-labeled antibodies is depicted in FIG. 78.
SmTrip9 variants such as Pep693 (SEQ ID NO: 20), Pep895 (SEQ ID NO: 24), and Pep929 (SEQ ID NO: 25) or SmTrip10 variants such as Pep691 (SEQ ID NO: 18) and Pep692 (SEQ ID NO: 19) were individually dissolved in DMF to 5 mM. […] Subsequently, these antibodies were combined with 20× molar excess of a reactive peptide for 1 hr at 4° C. while shaking in order to covalently label the proteins. […] SmTrip9 reactive peptides were used to label antibody 5IL6 while SmTrip10 reactive peptides were used to label antibody 505E. The denaturing SDS-PAGE gel shown in FIG. 79 was used to characterize the conjugated antibodies.
FIGS. 80-82 display raw RLU dose response curves for antibody conjugates in the presence of a rhIL-6 titration series. […] After addition of N205, luminescence signal was measured. […] Data in FIG. 81 were generated using 62.5 ng/ml of SmTrip9-labeled (HW-0984) 5IL6 antibody and 60 ng/ml of SmTrip10-labeled (HW-1053) 505E antibody. Data in FIG. 82 were generated using the following concentrations of antibody conjugates: 15 ng/ml HW-1043 (SEQ ID NO: 24)+30 ng/ml HW-1053 (SEQ ID NO: 18), 15 ng/ml HW-1052 (SEQ ID NO: 25)+15 ng/ml HW-1053, (SEQ ID NO: 18) 15 ng/ml HW-1055 (SEQ ID NO: 25)+15 ng/ml HW-1053 (SEQ ID NO: 18), 60 ng/ml HW-1042 (SEQ ID NO: 20)+8 ng/ml HW-1053 (SEQ ID NO: 18), and 60 ng/ml HW-1050 (SEQ ID NO: 27)+8 ng/ml HW-1053 (SEQ ID NO: 18).

purified NANOLUC enzyme = molecular target: T1, purified NANOLUC enzyme (Oplophorus gracilirostris, UniProt Q9GV45, A31E/A60N/A81I/F95D/I117V/K70R/L54V/L99Q/M102K/N193R/P142E/Q151K/Q38R/Q45L/V71I/Y165I); type: biochemical; conditions: stored in organic solvent at elevated temperature (60° C.)
T1 construct: purchased Promega

LgTrip 3546 = experiment: titration of the single labeled antibody with 1 µM LgTrip 3546 and N205, no IL-6 (FIG. 83)
[1] = Protein buffer formulations for proteins dried on Whatman 903 paper; conditions: buffers 2 and 5
Description: For these experiments, Whatman 903 protein saver spot cards were used with the following protein buffer formulations: • Protein buffer 1: 20 mM Na3PO4, 5% w/v BSA, 0.25% v/v tween 20, 10% w/v sucrose • Protein buffer 2: 20 mM Na3PO4, 0.25% v/v tween 20, 10% w/v sucrose • Protein buffer 3: 20 mM Na3PO4, 5% w/v BSA, 0.25% v/v tween 20 • Protein buffer 4: 20 mM Na3PO4, 5% w/v BSA, 0.25% v/v tween 20, 2.5% pullulan • Protein buffer 5: 20 mM Na3PO4, 0.25% v/v tween 20, 2.5% pullulan.
For NanoLuc, a 1000× stock solution was diluted 1:1000 in protein buffer (1 mL). For a 1.068 nM stock solution, 3 μl was diluted into 297 μl of protein buffer. About 5 μL of each concentration was spotted on the filter paper. For LgBiT-1672-11s-His, 5 μL of 1.068 nM protein per spot was used. About 104, was diluted in 990 μL protein buffer for a 2e^−7M stock. About 100 μL of a 100 nM protein solution was then prepared, and about 10 μL stock was diluted into 990 μL protein buffer for 1 nM stock. About 5 μL of each concentration was spotted onto filter paper. For LgTrip 3546, about 5 μL of 1.068 nM protein was used per spot. About 1.1 of LgBiT-1672 stock was diluted into 998.94 μL protein buffer. About 3 μL stock was diluted into 297 μL protein buffer. About 54, of each concentration was spotted onto filter paper. After all protein was added, the samples were dried at 30° C. for about 1 hour. […]

LgTrip 3546, sequence (chain, as listed by the source): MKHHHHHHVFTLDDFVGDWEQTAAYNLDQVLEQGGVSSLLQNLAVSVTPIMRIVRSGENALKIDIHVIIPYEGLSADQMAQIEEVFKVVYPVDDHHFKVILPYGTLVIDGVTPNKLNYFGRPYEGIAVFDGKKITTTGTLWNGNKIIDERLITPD

Molecule | signal in the absence of rhIL-6 (rhIL-6) | RLU (LgTrip 3546) | also measured
CC[C@H](C)[C@H](NC(=O)[C@@H](NC(=O)[C@@H](NC(=O)[C@H](CCCNC(=N)N)NC(=O)[C@H](Cc1ccccc1)NC(=O)[C@H](CC(C)C)NC(=O)[C@H](CCSC)NC(=O)[C@H](CCCNC(=N)N)NC(=O)[C@H](CCCNC(=N)N)NC(=O)CCOCCOCCOCCC(=O)ON1C(=O)CC(S(=O)(=O)O)C1=O)C(C)C)[C@@H](C)O)C(=O)N[C@@H](CCC(N)=O)C(=O)N[C@@H](CCCNC(=N)N)C(=O)N[C@@H](Cc1c[nH]c2ccccc12)C(=O)N[C@@H](CCCNC(=N)N)C(=O)O (some centres unmarked) [HW-1055, SulfoSE-PEG3-SmTrip9 Pep929] (X2-RRMLFRVTIQRWR-OH) | high signal even in the absence of rhIL-6 | – | –
SulfoSE-PEG3-SmTrip9 Pep938-SA (GRMLFRVTINSWRC; also: SulfoSE-PEG3 label, position not given here) [HW-1050] | low light output in the absence of the analyte | – | IL-6 assay result with LgTrip 5146 (rhIL-6): results similar to LgTrip 3546; signal to background (rhIL-6): best signal to background; light output in the presence of high rhIL-6 concentrations (rhIL-6): ~10^6 RLUs
CC[C@H](C)[C@H](NC(=O)[C@@H](NC(=O)[C@@H](NC(=O)[C@@H](NC(=O)[C@H](Cc1ccccc1)NC(=O)[C@H](CC(C)C)NC(=O)[C@H](CC(C)C)NC(=O)[C@H](CCCNC(=N)N)NC(=O)CNC(=O)CCOCCOCCOCCOCOCCOCCOCCC(=O)ON1C(=O)CC(S(=O)(=O)O)C1=O)[C@@H](C)O)C(C)C)[C@@H](C)O)C(=O)N[C@@H](CCC(=O)O)C(=O)N[C@@H](CCCNC(=N)N)C(=O)N[C@@H](Cc1ccc(O)cc1)C(=O)N[C@@H](CCCNC(=N)N)C(N)=O (some centres unmarked) [HW-1043, SulfoSE-PEG6-SmTrip9 Pep895] (X1-GRLLFTVTIERYR-NH2) | low light output in the absence of the analyte | – | IL-6 assay result with LgTrip 5146 (rhIL-6): results similar to LgTrip 3546; signal to background (rhIL-6): best signal to background; light output in the presence of high rhIL-6 concentrations (rhIL-6): ~10^6 RLUs
O=c1c(Cc2ccco2)nc2c(Cc3ccccc3)[nH]c(-c3ccccc3)cn1-2 [furimazine, 8-benzyl-2-(furan-2-ylmethyl)-6-phenylimidazo[1,2-a]pyrazin-3(7H)-one] | – | – | time to loss of all activity (purified NANOLUC enzyme): about 10 days
CC[C@H](C)[C@H](NC(=O)[C@@H](NC(=O)[C@@H](NC(=O)[C@H](CCCNC(=N)N)NC(=O)[C@H](Cc1ccccc1)NC(=O)[C@H](CC(C)C)NC(=O)[C@H](CCSC)NC(=O)[C@H](CCCNC(=N)N)NC(=O)[C@H](CCCNC(=N)N)NC(=O)CCOCCOCCOCCOCCOCCOCCC(=O)ON1C(=O)CC(S(=O)(=O)O)C1=O)C(C)C)[C@@H](C)O)C(=O)N[C@@H](CCC(N)=O)C(=O)N[C@@H](CCCNC(=N)N)C(=O)N[C@@H](Cc1c[nH]c2ccccc12)C(=O)N[C@@H](CCCNC(=N)N)C(=O)O (some centres unmarked) [HW-1052, SulfoSE-PEG6-SmTrip9 Pep929] (X3-RRMLFRVTIQRWR-OH) | high signal even in the absence of rhIL-6 | – | –
B1 | – | 100 RLU | –
B2 | – | > 1000 RLU | –
B3 | – | 100 RLU | –
B4 | – | 100 RLU | –
B5 | – | 100 RLU | –
B6 | – | – | change of RLU in protein buffers without BSA [1]: largest decreases in RLU
